{"source": "patent US8530456B2", "about": "“Sonic hedgehog modulators” (President and Fellows of Harvard College, priority 2008, dated 2013)", "key": {"ShhN protein (rmShh)": {"target": "T1, ShhN protein (rmShh) (Mus musculus, UniProt Q62226)", "T1 construct": "Recombinant mouse amino-terminal peptide 461-CF (rmShh); purchased R & D Systems 461-CF", "T1 sequence (Q62226 25-198 limits assumed)": "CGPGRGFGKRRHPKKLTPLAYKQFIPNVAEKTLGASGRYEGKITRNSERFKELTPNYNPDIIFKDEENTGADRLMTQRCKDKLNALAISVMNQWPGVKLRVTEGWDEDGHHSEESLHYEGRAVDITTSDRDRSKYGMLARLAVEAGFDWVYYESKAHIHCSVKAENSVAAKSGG", "assay": "Small molecule microarray (SMM) screen for ShhN binding", "details": "screened in triplicate", "description": "A screen of the ShhN protein was performed using small molecule microarrays (SMMs) containing a collection of approximately 10,000 diversity-oriented synthesis (DOS) compounds and natural products that has been reported by Koehler and co-workers, in which the entire library was arrayed on a single microscope slide (Bradner, J. E. et al. Chem. Biol. 13, 493-504, 2006). Three SMM slides were used to screen for small molecules that bind the ShhN protein, while two slides were designated as protein-free negative controls. Binding was detected by the use of a biotinylated anti-ShhN antibody, followed by incubation with streptavidin alexa 647. The treated slides were then scanned with a microarray plate reader. The duplicate negative controls eliminated many false positives, while screening in triplicate increased the accuracy of the results. Microarray image analysis was performed with GenePix Pro software (Molecular Devices, Sunnyvale Calif.). […] The software was then used to select all remaining possible positives in the ShhN-treated slides that exceeded our criteria for fluorescence intensity threshold. […]\nThe three experimental SMM slides were incubated on parafilm (Alcon, Menasha Wis.) with 300 μL of a 25 μg/mL rmShh solution in a 0.1% BSA in PBS buffer. […] Slides were dried by centrifugation and scanned with a GenePix 4000B microarray plate reader (Axon Instruments, Sunnyvale Calif.). […]"}, "[1]": {"target": "ShhN (N-terminal fragment of Sonic Hedgehog protein) (Homo sapiens, UniProt Q15465)", "sequence (Q15465 24-197)": "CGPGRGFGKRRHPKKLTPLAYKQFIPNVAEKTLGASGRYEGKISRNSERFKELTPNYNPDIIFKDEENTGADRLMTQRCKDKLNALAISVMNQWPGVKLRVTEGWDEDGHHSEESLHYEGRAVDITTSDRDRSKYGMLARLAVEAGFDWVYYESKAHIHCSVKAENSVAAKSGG", "assay": "Surface plasmon resonance (SPR) binding to immobilized purified ShhN", "details": "for ShhN binding in SPR: 0.78-25 μM compound", "description": "Biacore™ T100 (GE Healthcare, Uppsala, Sweden) was used to perform the experiments reported herein. Sensor surface preparation and interaction analyses experiments were performed at 25° C. Prior to surface preparation, lyophilized ShhN protein (R&D Systems) was dissolved in either water or PBS buffer, at pH 7.4 and protein purity determined by Nu-Page 4-12% Bis-Tris gel in MOPS buffer with a silver stain sensor preparation.\nShhN was immobilized onto series S sensor chip CM4 via a standard N-ethyl-N′-(dimethylaminopropyl)carbodiimide/N-hydroxysuccinimide (EDC/NHS) amine coupling procedures (Biacore Sensor Surface Handbook, 2003, version AA, Biacore, Uppsala, Sweden). Shh was diluted to 10 μg/mL in 10 mM sodium acetate pH 5.5 for these procedures and resultant immobilization levels were 1000-1200 R.U.s. Control surfaces were prepared similarly without protein derivatization and utilized as a reference surfaces for compound binding experiments.\nFor compound interaction analyses, 0.01 M Hepes, pH 7.4, 0.15 M NaCl, 0.05% Surfactant P20 and 5% DMSO was used for both running and sample buffers. Compound samples were prepared by serial dilution in the range 0.78 uM-25 uM and flowed over control and derivatized surfaces for two minutes at a flow-rate of 80 μL/min. Zero concentration blank buffer cycles were included as negative control samples. Solvent correction procedures were included to compensate for any DMSO related bulk refractive index variations and performed as described previously (Karlsson, R. et al. Anal. Biochem. 278, 1-13, 2000). Non-specific binding effects to sensor surface CM4 were absent for all analyses reported.\nData analysis was carried out using Biacore T100 evaluation software v1.1.1. Data were prepared by subtraction of reference surface data and blank buffer sample data, a procedure commonly referred to as ‘double referencing’ (Myszka, D. G. J. Mol. Recognit. 12, 1-6, 1999). Solvent correction was then applied as described previously."}, "[2]": {"system": "Ptc1-/- MEF cell line (Gli1-beta-galactosidase reporter)", "assay": "Ptc1-/- cell line beta-galactosidase reporter assay", "assay_type": "cell-based, mouse", "description": "To explore further the potential mechanism of Shh pathway inhibition involving direct perturbation of the ShhN protein complex, the same compounds were tested in a Ptc1^−/− cell line derived from mouse embryos lacking Ptc1 function. The cell line had both Ptc1 alleles replaced with a β-galoctosidase (β-gal) reporter (Surajit et al., supra). Because Ptc1 inhibits Hh pathway activation by repressing Smo function, removing both Ptc1 alleles results in constitutive pathway activation.\nThe ptc−/− cell line was derived from an embryonic mouse fibroblast cell line transfected with a β-galactosidase construct. The cell line was cultured in DMEM with 10% FBS until confluent, and then cells were plated 1:5 into white 96-well optical-bottom plates and allowed to reach a confluent state over 3-4 days while incubating at 37° C. After reaching confluency, the medium was removed from each well, and the cells were treated with test compound (for example, robotnikinin or cyclopamine) (EMD Biosciences, San Diego, Calif.) in DMEM with 0.5% FBS. After a 30 hour incubation, the wells were treated with Beta-Glo assay reagent (Promega, Madison, Wis.) and allowed to be gently agitated for 30 minutes at room temperature. After the agitation was complete, plates were read with an Envision Multi-Label Reader 2102 luminometer."}, "[3]": {"system": "Gli1 (Gli-dependent firefly luciferase reporter, ShhL2 cell line)", "assay": "ShhL2 (Shh-LIGHT2) Gli-luciferase reporter assay", "assay_type": "cell-based", "description": "We examined the activity of the new series of AML compounds in Shh-LIGHT2 cells (ATCC, Manassas Va.) (Tapaile, J., et al., 2000 supra), which is an NIH3T3 cell line with a Gli-dependent firefly luciferase reporter.\nTherefore, compounds that repress Gli1 activity would be putative inhibitors of Shh signaling in the cell line in which the experiments were carried out. We examined the activity of the new series of AML compounds in the Shh Light II cell line, or ShhL2 line (ATCC, Manassas Va.) (Tapaile, J., et al., 2000 supra), which is an NIH3T3 line transformed with a Gli-luciferase construct along with zeocin and G418 resistance vectors to select for the transformed strains during normal culturing.\n(§1) ShhL2 cells are NIHT3 cells that have been transfected with a Gli-luciferase construct, as previously reported (Tapaile, et al. 2000; Surajit, et al., supra). ShhL2 cells (ATCC, Manassas, Va.) were cultured with DMEM (GIBCO, Carlsbad, Calif.), 10% Calf Bovine Serum (ATCC Manassas, Va.), 0.4 mg/ml G-418 (ATCC, Manassas, Va.), 0.15 mg/ml Zeocin (Invitrogen, Carlsbad Calif., Cat. No. R25001) at 37° C. When confluent, the cells were plated 1:5 into white 96-well optical-bottom plates and allowed to reach confluence over approximately 5-7 days. When confluent, the medium was removed and the ShhL2 cells were treated with test compound (for example, robotnikinin or cyclopamine) (EMD Biosciences, San Diego, Calif.) in DMEM with 0.5% Calf Bovine Serum. After incubation for 30 hours, each well was treated with 100 μL of Bright-Glo luciferase assay reagent (Promega, Madison, Wis.) and the plate was read with an Envision Multi-Label Reader 2102 luminometer (Perkin Elmer, Waltham, Mass.). Wells treated in identical fashion were then treated with Cell Titer-Glo reagent (Promega, Madison, Wis.) and read with an Envision Multi-Label Reader 2102 luminometer after being allowed to stand 10 minutes at room temperature."}, "hair regrowth": {"system": "hair regrowth", "assay": "Topical application after depilation, hair regrowth in mice", "assay_type": "in vivo, mouse", "description": "Eight-week-old C57BL/6J female mice were purchased from Charles River (Boston, Mass.). Mice were housed in community cages at the animal facilities of the Massachusetts General Hospital. All mice were fed water and murine chow ad libitum and kept under 12 h light/dark cycles. Active hair growth (anagen) was induced in the back skin during the telogen phase of the hair cycle by application of the wax-rosin mixture with subsequent depilation, as described before (Paus, R., Stenn, K. S., Link, R. E. (1990). Br. J. Dermatol. 122, 777-784).\nRobotnokinin was dissolved in 10% DMSO and applied every day topically on the depilated skin surface. Mice were kept in individual cages to avoid scratching. Telogen-anagen transformation was studied at the following time points: telogen (unmanipulated skin), anagen (day 8 postdepilation) and very late anagen (day 12 postdepilation) (see FIG. 8a, top panels). In all experiments, the neck region of back skin was harvested parallel to the vertebral line for either heat-mediated epidermal separation and subsequent real time RT-PCR analysis for Gli1 and Gli2 expression levels or embedded for histology on frozen sections (see FIG. 8a, bottom panel, and FIG. 8b)."}, "ShhL2 cells": {"system": "ShhL2 cells", "assay": "Cell Titer Glo cell viability assay run in parallel in ShhL2 cells", "assay_type": "cell-based", "description": "as §1"}, "Gli1 mRNA": {"system": "Gli1 mRNA", "assay": "Gli1 mRNA by qPCR in primary human keratinocytes", "assay_type": "cell-based", "description": "(§2) Culturing of primary human keratinocytes was previously described (Nguyen, B. C., et al., Genes & Dev. 20:1028-1042 (2006)). The full thickness skin model, EpiDermFT System (MatTek, Ashland), consists of normal, human-derived epidermal keratinocytes and normal, human-derived dermal fibroblasts which have been cultured to form a multilayered, highly differentiated model of the human dermis and epidermis.\n(§3) Gene expression was compared by quantifying mRNA levels by real time RT-PCR. For this, total RNA preparations (1 μg) were used in a reverse transcriptase reaction with a mix of oligonucleotide dT and random hexamer primers, followed by real time PCR with gene-specific primers (Gli1: Qiagen Quantitect PrimerAssay QT00060501; Gli2: Qiagen Quantitect PrimerAssay QT00018648), using an Icycler IQTM real time detection system (Bio-Rad) according to the manufacturer's recommendation, with SYBR Green (Bio-Rad) for detection. Each sample was tested in triplicate, and the results were normalized by real time PCR of the same cDNA with 36B4 primers (36B4 forward primer: 5′-GCAATGTTGCCAGTGTCTGT 3; reverse primer, 5′-GCCTTGACCTTTTCAGCAAG-3′)."}, "[4]": {"system": "Gli1 and Gli2 transcripts", "assay": "Synthetic skin (primary human keratinocytes on collagen matrix): qPCR and histology", "assay_type": "cell-based", "description": "as §2, §3"}, "Gli2 mRNA": {"system": "Gli2 mRNA", "assay": "Gli2 mRNA by qPCR in primary human keratinocytes", "assay_type": "cell-based", "description": "as §2, §3"}}, "note": "“Also recorded” adds a separate entry of the source.", "data": [{"molecule": "CC1CNC(=O)C(CC(=O)N(CCO)Cc2ccccc2)CC=CCCC(N)C(=O)O1", "note": "(centres unmarked) [AML1]", "values": [{"measurement": "SMM screen result", "setting": "ShhN protein (rmShh)", "result": "assay positives"}, {"measurement": "ShhN binding in SPR", "setting": "[1]", "result": "binding to ShhN in a concentration-dependant fashion"}]}, {"molecule": "CC1COC(=O)C(N)CCC=CCC(CC(=O)N(CCO)Cc2ccccc2)C(=O)N1", "note": "(centres unmarked) [AML2]", "values": [{"measurement": "SMM screen result", "setting": "ShhN protein (rmShh)", "result": "assay positives"}, {"measurement": "ShhN binding in SPR", "setting": "[1]", "result": "binding to ShhN in a concentration-dependant fashion"}]}, {"molecule": "CC1=C2C[C@H]3[C@@H](CC=C4C[C@@H](O)CC[C@@]43C)[C@@H]2CC[C@]12O[C@@H]1C[C@H](C)CN[C@H]1[C@H]2C", "note": "[cyclopamine, reference compound]", "values": [{"measurement": "pathway inhibition in Ptc1-/- cell line", "setting": "[2]; 6.6 μM cyclopamine", "result": "significant pathway inhibition"}]}, {"molecule": "O=C(C[C@@H]1C/C=C/CCC(=O)O[C@H](c2ccccc2)CNC1=O)NCc1ccc(Cl)cc1", "note": "[robotnikinin, N-(4-chlorobenzyl)-2-((2R,6S,E)-5,12-dioxo-2-phenyl-1-oxa-4-azacyclododec-8-en-6-yl)acetamide]", "values": [{"measurement": "EC50", "setting": "[3]; Shh Light2, ShhL2 cell line, Bright Glo luciferase, approximations based on concentration curves", "result": "~4", "unit": "µM"}, {"measurement": "concentration giving inhibition comparable to 6.25 μM cyclopamine", "setting": "[3]; Shh-LIGHT2 cells", "result": "above 30 μM"}, {"measurement": "inhibition with co-administered purmorphamine", "setting": "[3]; Shh-LIGHT2 cells, ShhN-conditioned medium plus 3.6 μM purmorphamine", "result": "virtually all of the inhibitory effect was eliminated; also recorded: negligible inhibition"}, {"measurement": "Gli1 ECmax", "setting": "[3]; ShhL2 cell line, concentration of maximal effect", "result": 62.5, "unit": "µM"}, {"measurement": "Shh pathway inhibition / Gli1 suppression", "setting": "[3]; ShhN-conditioned medium, 30 h incubation", "result": "concentration-dependent inhibition of ShhN-induced pathway activation; also recorded: strong concentration dependent Gli1 suppression"}, {"measurement": "% CI (% cyclopamine inhibition), footnote d", "setting": "[3]; may be taken relative to mock treatment (comparable to 6 μM cyclopamine), cytotoxic compounds: at highest effective non-cytotoxic concentration", "result": 91, "unit": "%"}, {"measurement": "pathway inhibition in Ptc1-/- cell line", "setting": "[2]; 30 h, any concentration tested, normalized for cell titer", "result": "no pathway inhibition was observed; also recorded: pathway inhibition was not observed"}, {"measurement": "hair follicles in skin cross sections", "setting": "hair regrowth; 12 days post depilation", "result": "lack of hair follicles"}, {"measurement": "hair regrowth", "setting": "hair regrowth; topical, daily, 8 and 12 days post depilation, C57BL/6J mice", "result": "blocked hair regrowth"}, {"measurement": "cytotoxicity", "setting": "ShhL2 cells; Cell Titer Glo, ShhL2 cells, concentration above which cytotoxic", "result": "none"}, {"measurement": "cytotoxicity", "setting": "ShhL2 cells; cell titer viability assay", "result": "No significant cytotoxicity was observed"}, {"measurement": "effect on Gli1/Gli2 mRNA with co-administered Smo agonists purmorphamine and SAG", "setting": "Gli1 mRNA; primary human keratinocytes", "result": "this effect is blocked"}, {"measurement": "endogenous Gli1 mRNA level", "setting": "Gli1 mRNA; qPCR, normalized for cell titer", "result": "lowers levels"}, {"measurement": "histology of treated synthetic skin", "setting": "[4]", "result": "histologically normal"}, {"measurement": "Gli1 and Gli2 mRNA levels in synthetic skin", "setting": "[4]; qPCR after incubation", "result": "reduced levels of Gli1 and Gli2 mRNA"}, {"measurement": "ShhN binding in SPR", "setting": "[1]", "result": "ShhN-binding capacity at concentrations between 1.56 μM and 25 μM; also recorded: concentration-dependent binding to purified ShhN"}, {"measurement": "dissociation time in SPR", "setting": "[1]; compared with AML1 and AML2", "result": "longer dissociation time than AML1 and AML2"}, {"measurement": "endogenous Gli2 mRNA level", "setting": "Gli2 mRNA", "result": "lowers levels; also recorded: lower levels of endogenous Gli2 mRNA"}]}]}
